# Entries after “also recorded” stand apart in the source; their conditions may differ.
# Tests used:
# MSC niche = test: In vitro mesenchymal stem cell niche (cobblestone area) formation, phase contrast imaging; assay type: cell-based, human; details: SDF-1/CXCL12 10 ng/ml, AMD3100 10 μM
# Experimental: Fresh human BM samples were obtained from orthopedic surgery after informed consent (Tissue Donor Program of the Feinstein Institute). The buffy coat containing the mononucleated cells (MNC) was isolated by Ficoll-density gradient separation (Stem Cell Technology, Vancouver). MNC were plated at low density in 6-well plates in Alpha-Mem (Lonza), 20% heat-inactivated fetal bovine serum (Hyclone), 5 mM L-Glutamine and 100 Units/ml Peni/Strep (Stem Cell Technologies) for overnight adherence. After 24-48 hours, the non-adherent cell fraction was discharged by rigorous pipetting. At day 5, single-cell derived mesenchymal colonies were processed for immunohistochemistry (Vectastain ABC kit, Vector Laboratories, Burlingame, Calif.). MSC were stained for CD90/Thy-1 (Mouse anti-human mAb, Clone 5E10, BD Pharmingen), CD105 (Mouse anti-human mAb, clone 266, BD Pharmingen), CD146 (Mouse monoclonal [P1H12] Abcam). Cells were also labeled for flow cytometry with CD34-APC (Miltenyi Biotec), CD105-FITC (R&D), CD45-FITC, CD90-PECy5, CD146-PE and CXCR4-PE (BD Pharmingen) including matching isotype controls.
# Polyurethane scaffold test discs (10×1.5 mm—Biomerix) were placed inside a cloning cylinder (Millipore Corporation, MA), one cylinder in each well of a 24-well plate (Falcon, BD). […]
# [1] = test system: AML cells in MSC-coated scaffolds; test: In vivo mesenchymal leukemic niche in MSC-coated scaffolds implanted subcutaneously in NOD/SCID mice, CD45 immunohistochemistry; details: 4 weeks; in situ injection twice per week; SDF-1/CXCL12 10 ng/ml; AMD3100 10 μM; human CD45 stain
# Experimental: Polyurethane scaffolds (10×1.5 mm—Biomerix), coated in vitro with human BM-derived MSC (day 5-7), were implanted in a subcutaneous pocket on the dorsum of non-irradiated NOD/SCID mice (Jackson laboratory) according to an approved IACUC animal protocol. Empty scaffolds (without MSC seeding) were used as negative controls. CD34+ HSC (1×10^5—Stem Cell Technology, Vancouver) or primary AML cells (1×10^7—cryopreserved and thawed) were injected either in situ or retro-orbital in the mice and analyzed for engraftment. The mice were treated twice per week with in situ injections of SDF-1/CXCL12 (10 ng/ml), AMD3100 (10 μM) or PBS (control). At week 1, week 4 and week 8, mice were sacrificed and the scaffolds, femurs and spleens were processed and evaluated for cell survival in the mesenchymal niche by immunohistochemistry.
# Harvested scaffolds were fixed in formalin solution 10%, neutral buffered (HistoPak-StatLab Medical Products-TX) and paraffin embedded and cut on slides. […]
# Each experiment was performed in duplicate, with two mice per experiment in each treatment arm and one mouse as a negative control. Multiple slides per scaffold were analyzed for imaging by immunohistochemistry and light microscopy. […]
# CXCR4 = CXCR4 (Homo sapiens, UniProt P61073); details: AML; reference [42]; cited from earlier work
# CXCR4, sequence (P61073 whole entry): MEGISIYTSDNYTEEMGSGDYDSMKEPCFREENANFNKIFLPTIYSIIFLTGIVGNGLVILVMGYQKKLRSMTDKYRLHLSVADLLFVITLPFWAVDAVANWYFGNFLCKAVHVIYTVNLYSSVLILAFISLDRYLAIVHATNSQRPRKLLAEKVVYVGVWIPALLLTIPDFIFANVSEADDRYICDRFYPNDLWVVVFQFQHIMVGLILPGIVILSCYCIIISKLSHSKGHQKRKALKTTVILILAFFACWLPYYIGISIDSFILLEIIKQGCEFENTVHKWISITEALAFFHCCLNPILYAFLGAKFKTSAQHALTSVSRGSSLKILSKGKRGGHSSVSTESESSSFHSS
Compound,cobblestone area formation / migration of hematopoietic progenitors underneath the MSC (MSC niche),MSC stromal layer and adherence of AML cells in MSC-coated scaffold [1],effect on chemoprotective effects of the stromal cell-leukemia interaction (CXCR4)
"SDF-1/CXCL12: chemokine stromal-cell derived factor, ligand of CXCR4 (R&D Systems)",cobblestone area formation,thick proliferation of the MSC stromal layer with multiple adherent AML cells present; also recorded: upregulates adhesion of AML cells to the stroma; also recorded: induces hyperproliferation of the mesenchymal stroma compartment,
c1cc(CN2CCCNCCNCCCNCC2)ccc1CN1CCCNCCNCCCNCC1 [AMD3100],MSC remain empty and hematopoietic progenitors do not migrate underneath the MSC; also recorded: the cytoplasm remained empty,"the stromal lining is thin and disrupted at several points, leaving AML cells free floating in proximity; also recorded: interact with AML homing by stem cell niche disruption at the level of the stromal layer; also recorded: thin stromal lining that was disrupted at several points, leaving AML cells free floating in proximity; also recorded: the MSC stroma became ruffled and non-adherent and AML remained only loosely attached",
c1ccc(CNCc2ccc(CN3CCCNCCNCCCNCC3)cc2)nc1 [AMD3465],,,prevent the chemoprotective effects of the stromal cell-leukemia interaction

# — patent US20110207166A1, “Human bone marrow microenvironments and uses thereof” (priority 2009, published 2011)
